Like-named read-outs stand apart in the source and are kept apart here.
Columns and labels:
[1] = target: T1, ER-β (Homo sapiens, UniProt Q92731); assay: Estrogen receptor binding measurement (competition with [125I]-estradiol), ER-β; tables head the values "FP β-ER Ki"
T1 construct: made in house; host or cells: cell-free: TNT T7 Quick-Coupled rabbit reticulocyte lysate (Promega L1170)
Protocol: (§1) Receptor protein was prepared by in vitro transcription and translation of these plasmids using the TNT T7 Quick-Coupled reticulocyte lysate system (Promega Cat.#L1170). […] Programmed lysate was then aliquotted and stored frozen at −80° C.
(§2) Compounds were tested in duplicate at half-log concentrations ranging from 10 pM to 3 μM. Compounds were prepared as 1 mM stocks in DMSO, then diluted in the binding-assay buffer (in mM: 20 HEPES, 150 NaCl, 1 EDTA, 6 monothioglycerol and 10 Na2MoO4,; 10% wt/vol glycerol, and pH=7.9) to a series of […] concentrated, 20 μL aliquots in a 96-well plate. Receptor aliquots were thawed on ice, and appropriately diluted (see below) in binding assay buffer. Diluted receptor (30 μL/each) was added to each well. […] Plates containing the final assay mixture were mixed on a shaker for 2 min and incubated overnight (˜16 h) at 4° C.
(§3) Receptor-bound and unbound radioligand was separated by filtration over sephadex columns. Columns (45 μL bed volume) were prepared by adding dry column media (Pharmacia Cat#G-25) to 96-well column templates (Millipore MultiScreen Plates Cat#MAHVN4510). Columns were then saturated with 300 μL of binding-assay buffer and stored at 4° C. Prior to use, stored columns were spun for 10 minutes at 2000 RPM, then washed twice with 200 μL of fresh binding buffer. The binding-assay mixtures (50 μL/each) were then applied to the columns, and an additional elution volume of 35 μL was immediately applied to the column. Receptor-bound radioligand was then eluted from the column by centrifugation for 10 minutes at 2000 RPM. A scintillation cocktail (145 μL) was added to the eluted radioligand/receptor complex, and radio-label was measured by liquid scintillation counting.
(§4) The volume of receptor-programmed reticulocyte lysate to be added to the binding assay was determined independently from two measurements made on each batch of receptor prepared. First, Kis were determined for standard compounds using a series of dilutions of the receptor preparation. Scatchard analysis of ligand binding affinity was performed at the receptor dilutions that produced reported Kis for these compounds and an acceptable signal:noise ratio (˜10).

[2] = target: T2, ER-α (Homo sapiens, UniProt P03372); assay: Estrogen receptor binding measurement (competition with [125I]-estradiol), ER-α; tables head the values "FP α-ER Ki"
T2 construct: made in house; host or cells: cell-free: TNT T7 Quick-Coupled rabbit reticulocyte lysate (Promega L1170)
T2 sequence (P03372 1-595): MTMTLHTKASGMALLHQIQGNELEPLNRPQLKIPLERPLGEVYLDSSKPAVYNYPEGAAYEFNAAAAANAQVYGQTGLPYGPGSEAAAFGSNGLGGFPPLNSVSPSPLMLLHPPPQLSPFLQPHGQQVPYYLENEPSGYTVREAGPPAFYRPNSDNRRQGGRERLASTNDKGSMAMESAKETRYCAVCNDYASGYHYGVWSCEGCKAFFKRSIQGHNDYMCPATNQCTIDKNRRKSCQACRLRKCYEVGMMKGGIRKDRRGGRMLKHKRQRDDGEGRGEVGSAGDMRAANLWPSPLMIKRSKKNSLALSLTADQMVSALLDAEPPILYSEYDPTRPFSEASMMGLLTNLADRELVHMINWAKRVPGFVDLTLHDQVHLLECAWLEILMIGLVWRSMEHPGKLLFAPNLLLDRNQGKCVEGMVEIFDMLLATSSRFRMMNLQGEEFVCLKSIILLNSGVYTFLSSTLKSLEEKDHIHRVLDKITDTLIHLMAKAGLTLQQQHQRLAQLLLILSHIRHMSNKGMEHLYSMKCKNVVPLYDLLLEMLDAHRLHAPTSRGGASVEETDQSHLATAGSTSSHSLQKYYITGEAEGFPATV
Protocol: as §1, §2, §3, §4

[3] = target: ER; assay: Scatchard analysis of ligand binding affinity on receptor preparations; conditions: Scatchard analysis at chosen receptor dilutions; receptor subtype not specified; read-out: KD for [125I]-estradiol
Protocol: as §4

T1 sequence (Q92731 54-530 limits assumed): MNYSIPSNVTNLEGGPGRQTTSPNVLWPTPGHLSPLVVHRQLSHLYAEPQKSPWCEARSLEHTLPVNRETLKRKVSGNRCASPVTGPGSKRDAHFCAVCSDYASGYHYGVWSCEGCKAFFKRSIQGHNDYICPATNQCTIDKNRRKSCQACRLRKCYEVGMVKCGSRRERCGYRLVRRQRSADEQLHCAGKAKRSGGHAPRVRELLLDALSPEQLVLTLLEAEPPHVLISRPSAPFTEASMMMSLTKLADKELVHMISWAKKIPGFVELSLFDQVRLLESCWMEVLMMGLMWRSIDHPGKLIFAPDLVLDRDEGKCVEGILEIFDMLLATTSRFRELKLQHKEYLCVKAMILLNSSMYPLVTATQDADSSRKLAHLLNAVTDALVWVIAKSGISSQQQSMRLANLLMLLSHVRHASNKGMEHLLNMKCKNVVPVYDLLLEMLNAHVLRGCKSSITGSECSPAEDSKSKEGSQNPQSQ

| SMILES | Selectivity ([1]; ER-α Ki / ER-β Ki) | Ki ([1]; read-out: FP β-ER Ki) | Ki ([2]; read-out: FP α-ER Ki) | FP Sel. Ratio ([1]; ER-α Ki / ER-β Ki) | Ki ([1]; LOQ = 0.01 nM, upper limit 1000 nM, read-out: FP ER-β Ki) | Ki ([2]; LOQ = 0.01 nM, upper limit 1000 nM, read-out: FP ER-α Ki) | Kd [3] |
| --- | --- | --- | --- | --- | --- | --- | --- |
| O=c1c(-c2ccc(O)cc2)coc2cc(O)cc(Cl)c12 [Example 1, 5-Chloro-7-hydroxy-3-(4-hydroxyphenyl)-4-oxo-4H-1 benzopyran] | 139 | 4.3 nM | 600 nM |  |  |  |  |
| O=c1c(-c2ccc(O)cc2Cl)coc2cc(O)cc(Cl)c12 [Example 2, 5-Chloro-3-(2-chloro-4-hydroxyphenyl)-7-hydroxy-4-oxo-4H-1-benzopyran] | 19 | 16 nM | 300 nM |  |  |  |  |
| Cc1cc(O)ccc1-c1coc2cc(O)cc(Cl)c2c1=O [Example 3, 5-chloro-7-hydroxy-3-(4-hydroxy-2-methylphenyl)-4-oxo-4H-1-benzopyran] | 18 | 50 nM | 900 nM |  |  |  |  |
| O=c1c(-c2ccc(O)cc2)coc2cc(O)cc(F)c12 [Example 4, 5-Fluoro-7-hydroxy-3-(4-hydroxyphenyl)-4-oxo-4H-1-benzopyran] | >56 | 39 nM | > 2200 nM |  |  |  |  |
| O=c1c(-c2ccc(O)cc2)coc2cc(O)cc(Br)c12 [Example 5, 5-Bromo-7-hydroxy-3-(4-hydroxyphenyl)-4-oxo-4H-1-benzopyran] | 90 | 2.8 nM | 251 nM |  |  |  |  |
| O=c1c(-c2ccc(O)cc2)coc2cc(O)cc(I)c12 [Example 6, 7-Hydroxy-3-(4-hydroxyphenyl)-5-iodo-4-oxo-4H-1-benzopyran] | 38 | 3.9 nM | 147 nM |  |  |  |  |
| N#Cc1cc(O)cc2occ(-c3ccc(O)cc3)c(=O)c12 [Example 7, 5-Cyano-7-hydroxy-3-(4-hydroxyphenyl)-4-oxo-4H-1-benzopyran] | >39 | 58 nM | > 1000 nM |  |  |  |  |
| CSc1cc(O)cc2occ(-c3ccc(O)cc3)c(=O)c12 [Example 8, 7-Hydroxy-3-(4-hydroxyphenyl)-5-methylthio-4-oxo-4H-1-benzopyran] | 7 | 84 nM | 563 nM |  |  |  |  |
| O=c1oc2cc(O)cc(Cl)c2cc1-c1ccc(O)cc1 [Example 9, 5-Chloro-7-hydroxy-3-(4-hydroxyphenyl)coumarin] | 35 | 1.8 nM | 62 nM |  |  |  |  |
| Oc1ccc(C2COc3cc(O)cc(Cl)c3C2)cc1 (stereo not shown) [Example 10, 5-Chloro-7-hydroxy-3-(4 hydroxyphenyl)chroman] | 6.4 | 2 nM | 13 nM |  |  |  |  |
| Cc1oc2cc(O)cc(Cl)c2c(=O)c1-c1ccc(O)cc1 [Example 11] |  |  |  | 32.8 | 46.1 nM | ≥ 1000 nM |  |
| C[C@]12CC[C@@H]3c4ccc(O)cc4CC[C@H]3[C@@H]1C[C@@H](I)[C@@H]2O [[^125I]-estradiol, [^125I]-16α-iodo-3,17β-estradiol] |  |  |  |  |  |  | 0.1 to 1 nM |
